Test results taken from paper PMC8815882, “Screening the pandemic response box identified benzimidazole carbamates, Olorofim and ravuconazole as promising drug candidates for the treatment of eumycetoma” (PLoS Neglected Tropical Diseases, 2022).
Read-outs that look alike come from different tables or passages of the source.

Tested on: M. mycetomatis genome strain MM55
Assay: CLSI M38-A2 based in vitro susceptibility screening (XTT or resazurin), growth at fixed concentration
Type: cell-based, Madurella mycetomatis
Conditions: Madurella mycetomatis
[1] = mean of replicates, MM55, read-out: Percentage survival at 25um, 25 uM mean
[2] = replicate A, MM55, read-out: Percentage survival at 25um, 25 um A
[3] = replicate B, MM55, read-out: Percentage survival at 25um, 25 uM B
[4] = replicate C, MM55, read-out: Percentage survival at 25um, 25 uM C
[5] = 100 uM, mean of replicates, MM55, read-out: Percentage survival at 100um, 100 uM mean
[6] = 100 uM, replicate 1, MM55, read-out: Percentage survival at 100um, 100 uM A
[7] = 100 uM, replicate 2, MM55, read-out: Percentage survival at 100um, 100 uM A
[8] = 100 uM, replicate 3, MM55, read-out: Percentage survival at 100um, 100 uM A
[9] = mean, read-out: Percentage survival at 25um, 25 uM mean
[10] = replicate A, read-out: Percentage survival at 25um, 25 um A
[11] = replicate B, read-out: Percentage survival at 25um, 25 uM B
[12] = replicate C, read-out: Percentage survival at 25um, 25 uM C
[13] = 100 uM, mean, read-out: Percentage survival at 100um, 100 uM mean
[14] = 100 uM, replicate (first column), read-out: Percentage survival at 100um, 100 uM A
[15] = 100 uM, replicate (second column), read-out: Percentage survival at 100um, 100 uM A
[16] = 100 uM, replicate (third column), read-out: Percentage survival at 100um, 100 uM A

Row | SMILES | activity at 25 µM [1] [%] | activity at 25 µM [2] [%] | activity at 25 µM [3] [%] | activity at 25 µM [4] [%] | activity at 100 µM [5] [%] | activity at 100 µM [6] [%] | activity at 100 µM [7] [%] | activity at 100 µM [8] [%] | activity at 25 µM [9] [%] | activity at 25 µM [10] [%] | activity at 25 µM [11] [%] | activity at 25 µM [12] [%] | activity at 100 µM [13] [%] | activity at 100 µM [14] [%] | activity at 100 µM [15] [%] | activity at 100 µM [16] [%] | further results
1 | Nc1nc2c(ncn2/C=C2/CC2(CO)CO)c(=O)[nH]1 [MMV1782210] | 94.9 | 102 | 100 | 83.3 | 81.8 | 89.9 | 79.8 | 75.6 | – | – | – | – | – | – | – | – | –
2 | C[C@@H](NC(=O)c1cccc(-c2c[nH]c(-c3cc4ccccc4cn3)n2)c1)c1ccc(F)cc1 [MMV1782211] | 77 | 80.9 | 86 | 64.2 | 70 | 78.5 | 73.3 | 58.3 | – | – | – | – | – | – | – | – | –
3 | CC(C)(C)c1ccc(C(=O)NC(=O)N2CCCc3ccccc32)cc1 [MMV1782212] | – | – | – | – | – | – | – | – | 78.4 | 90.3 | 74.4 | 70.6 | 81.3 | 68.7 | 79.3 | 95.8 | –
4 | O=C(CSc1nnc(Br)n1-c1ccc(C2CC2)c2ccccc12)Nc1ccc(C(=O)O)cc1Cl [MMV1782213] | 81 | 93.7 | 82 | 67.3 | 74.5 | 63.5 | 115 | 45.2 | – | – | – | – | – | – | – | – | –
5 | C=CCN(C(=O)OCc1ccc([N+](=O)[O-])cc1)C1CCN(CC[C@](C)(CN(C)S(=O)(=O)c2ccccc2)c2ccccc2)CC1 [MMV1782214] | 69.4 | 79.7 | 66.7 | 61.9 | 62.1 | 55.9 | 76.9 | 53.4 | – | – | – | – | – | – | – | – | –
6 | O=P(O)(O)C(CCCc1cccc(Oc2ccccc2)c1)S(=O)(=O)O (centres unmarked) [MMV1782215] | – | – | – | – | – | – | – | – | – | 82.3 | 68.2 | 56.8 | – | – | – | – | activity at 25 µM (mean of three replicates, read-out: Percentage survival at 25um, 25 uM mean): 69.1%; activity at 100 µM (100 uM, mean of three replicates, read-out: Percentage survival at 100um, 100 uM mean): 68.9%; activity at 100 µM (100 uM, replicate 1, read-out: Percentage survival at 100um, 100 uM A (first replicate column)): 79.5%; Percent fungal survival at 100 µM (100 uM, replicate 2, read-out: Percentage survival at 100um, 100 uM A (second replicate column)): 65.1%; activity at 100 µM (100 uM, replicate 3, read-out: Percentage survival at 100um, 100 uM A (third replicate column)): 62%
7 | CCCNc1ccc(S(=O)(=O)Nc2cc(C)on2)cc1 [MMV1782216] | – | – | – | – | – | – | – | – | 75.9 | 81.9 | 68.5 | 77.2 | 87.1 | 83.4 | 74.1 | 104 | –
8 | Cc1cc(NS(=O)(=O)c2ccc(-c3ccc(F)cc3F)cc2)no1 [MMV1782217] | – | – | – | – | – | – | – | – | 78.8 | 76.3 | 79.1 | 81.1 | 93.7 | 83.4 | 76.4 | 121 | –
9 | O=C(NC(=O)N1CCCc2ccccc21)c1ccc(Cl)cc1Cl [MMV1782218] | – | – | – | – | – | – | – | – | 77.7 | 84.5 | 82 | 66.6 | 59.4 | 65.3 | 55.7 | 57.2 | –
10 | CC(C)CCN1C(=O)C(C2=NS(=O)(=O)c3cc(NS(C)(=O)=O)ccc3N2)=C(O)[C@@H]2[C@H]3CC[C@H](C3)[C@@H]21 [MMV1782220] | 83.6 | 78.4 | 83.3 | 89.2 | 113 | 140 | 71 | 127 | – | – | – | – | – | – | – | – | –
